Laboratory results as given in US20260335293A1, “USE OF NOVEL COMPOUND FOR TREATING INTRACTABLE DISEASES” (YJ CERAPEUTICS INC., priority 2023, published 2026).

Key:
TRPM7 = TRPM7 expression in SNI model, Western blot; type: in vivo, Sprague-Dawley rats; conditions: 4 weeks after nerve injury
Description: FIG. 5C is a diagram showing results of analyzing the expression of TRMP7 in an SNI animal model by Western blot.
(§1) To determine through which signaling pathway YJ102 inhibited a neuroinflammatory response, there was analyzed increased expression and activation of histone demethylase JMJD3 and expression changes of factors associated with JAK/STAT3 pathway, mTOR pathway, and TRPM7-mediated pathway, which were known as important regulatory mechanisms and epigenetic regulators mediating the neuroinflammatory response, in the tissues of the SNI animal model 4 weeks after nerve injury.

[1] = system: ED-1-positive macrophages; test: Introduction of macrophages (ED-1) into bladder of SCI model, immunofluorescence; type: in vivo, Sprague-Dawley rats; conditions: day 7 after SCI
UPIII = test: Urothelial marker UPIII in SCI model, Western blot; type: in vivo, Sprague-Dawley rats; conditions: day 3 after SCI
[2] = system: proNGF in Raw 264.7 macrophage cell line; test: proNGF expression in LPS-stimulated Raw 264.7 macrophage cell line; type: cell-based; conditions: LPS 1 μg/ml; YJ102 30 minutes before LPS
Description: (§2) In order to determine whether YJ102 affected the production of proNGF as a ligand of p75, the expression of proNGF in the bladder was confirmed by RT-PCR, Western blot analysis, and immunofluorescence staining. In addition, for further verification, a macrophage cell line Raw 264.7 (Korea Cell Line Bank, Seoul, Korea) was stimulated with 1 μg/ml of LPS, and the effect of YJ102 on the production of proNGF was investigated. At this time, YJ102 was dissolved in DMSO and treated 30 minutes before LPS treatment.

mTOR pathway = mTOR pathway in SNI model, Western blot; type: in vivo, Sprague-Dawley rats; conditions: 4 weeks after nerve injury
Description: FIG. 5B is a diagram showing results of analyzing the expression of factors associated with a mTOR signaling pathway in an inflammation-inhibiting mechanism in an SNI animal model by Western blot.
as §1

NGF / proNGF = test: NGF mRNA and proNGF in bladder tissue of SCI model, RT-PCR and Western blot; type: in vivo, Sprague-Dawley rats; conditions: bladder tissue after SCI
Description: In order to confirm the effect of YJ102 (Chemical Formula 1), a compound of the present disclosure, on urinary disturbances caused by spinal cord injury, immediately after preparing the traumatic spinal cord injury (SCI) model (FIG. 1A) prepared in Example 1 above, YJ102 was dissolved in DMSO, methyl pyrrolidinone, and water (1:1.5:1) and administered intraperitoneally at 5 mg/kg, and then intraperitoneally administered at 24-hour intervals for 7 days from the next day. Thereafter, the effect of improving bladder functions was analyzed through a residual urine volume test and a urinary bladder function score (UBFS). At this time, a Vehicle group was administered with the same amount of a solution of DMSO, methyl pyrrolidinone, and water. Specifically, in order to determine the amount of urine remaining in the bladder after spinal cord injury, bladder extrusion was performed twice a day by applying pressure to the central bottom portion of the lower abdomen using the index and middle fingers to empty the bladder, and the expelled urine was collected in a catheter and its volume was recorded. […]

p75 = p75 expression in urothelium of SCI model, RT-PCR and Western blot; type: in vivo, Sprague-Dawley rats; conditions: after SCI
MPO-positive neutrophils = test: Introduction of neutrophils (MPO) into bladder of SCI model, immunofluorescence; type: in vivo, Sprague-Dawley rats; conditions: day 1 after SCI
[3] = system: urothelium (TUNEL-positive cells); test: Urothelial cell apoptosis in SCI model, TUNEL staining; type: in vivo, Sprague-Dawley rats; conditions: day 3 after SCI; vs Vehicle
[4] = system: inflammatory factors in Raw 264.7 cell line; test: Inflammatory factor mRNA in LPS-stimulated Raw 264.7 macrophage cell line, RT-PCR; type: cell-based; conditions: LPS-treated Raw 264.7, RT-PCR
Description: as §2
To confirm the effect of YJ102 on the expression of inflammatory factors in the bladder after spinal cord injury, the expression of inflammatory cytokines and chemokines, COX-2, iNOS, IL-6, IL-1β, MIP-1α, MIP-1β, MIP-2a, and Gro-α in bladder tissue was confirmed by RT-PCR analysis and Western blot analysis using the primers in Table 2 above. In addition, even in the Raw 264.7 cell line, the expression was verified by RT-PCR analysis.

[5] = system: psoriasis (IMQ psoriasis animal model); test: Erythema and scaling (PASI) in IMQ psoriasis model; type: in vivo, C57BL/6 mouse
Description: Psoriasis caused by excessive production of skin cells was a chronic skin disease associated with various factors, including autoimmune diseases, and its symptoms included red and thickened skin and abnormally occurring scaling. […] Specifically, the back region of a C57BL/6 mouse (male, 18 to 20 g, 8 weeks) (Daehan Biolink, Eumseong, Korea) was shaved to remove hair, and then applied with IMQ cream (83 mg/day) (5%) for consecutive 5 days from Day 0 to Day 4 to induce psoriasis-like skin inflammation, and a normal control mouse (Sham) was applied with Vaseline cream (FIG. 16A).
In order to confirm the effect of YJ102 (Chemical Formula 1), a compound of the present disclosure, on psoriasis, YJ102 dissolved in DMSO, methyl pyrrolidinone, and water (1:1.5:1) was administered intraperitoneally (5 mg/kg) for a total of 3 days on Day 2, Day 3, and Day 4, and the Vehicle group was administered in the same amount of a solution of DMSO, methyl pyrrolidinone, and water (1:1.5:1) (FIG. 16A). To assess daily skin changes, PASI scores were used for erythema and scaling. The PASI score was evaluated as a severity scale of 0 to 4, in which 0 meant none, 1 meant mild, 2 meant moderate, 3 meant severe, and 4 meant very severe. (PASI Reference: Yashpal Manchanda, Abhishek De, Sudip Das, and Disha Chakraborty. Disease Assessment in Psoriasis. Indian J Dermatol. 2023 May-June; 68 (3): 278-281.)

[6] = 5 mg/kg i.p. Days 2-4, vs Vehicle

SMILES: CCc1ccc(N(C(=O)COC)c2nc3cc(Cl)ccc3o2)cc1 [YJ102]
- expression of TRPM7 (TRPM7): inhibited the expression
- introduction of ED-1-positive macrophages into the bladder [1]: significantly inhibited
- reduction in level of UPIII (urothelial loss) (UPIII): inhibited
- mRNA expression of proNGF [2]: significantly inhibited
- protein expression of proNGF [2]: significantly inhibited
- activity of S6 (mTOR pathway): inhibiting the activity
- activity of p70S6kinase (mTOR pathway): inhibiting the activity
- NGF mRNA expression (NGF / proNGF): significantly inhibited
- proNGF production (NGF / proNGF): significantly inhibited
- p75 expression (p75; RT-PCR (mRNA)): significantly reduced
- p75 expression (p75; Western blot (protein)): significantly reduced
- introduction of MPO-positive neutrophils into the bladder (MPO-positive neutrophils): significantly inhibited
- number of TUNEL-positive cells in the urothelium [3]: significantly reduced
- mRNA level of COX-2 [4]: significantly reduced
- mRNA level of IL-1β [4]: significantly reduced
- mRNA level of IL-6 [4]: significantly reduced
- mRNA level of TNF-α [4]: significantly reduced
- mRNA level of iNOS [4]: significantly reduced
- symptoms (erythema and scaling) on Day 6 ([5]; 5 mg/kg i.p. Days 2-4, Day 6): appeared to be alleviated
- degree of erythema (PASI) [5, 6]: significantly lower than that of the Vehicle group
- degree of scaling (PASI) [5, 6]: significantly lower than that of the Vehicle group
